For 22 compounds, EC50 results are on record in patent publication US8785488B2 (Exelixis Patent Company LLC, priority 2009, dated 2014).

Bounds are passed on as bounds.

The target in assay [1] is T1, human TGR5 (h-TGR5) (Homo sapiens, UniProt Q8TDU6).
T1 construct: expressed in transfected cells
T1 sequence (Q8TDU6 1-330): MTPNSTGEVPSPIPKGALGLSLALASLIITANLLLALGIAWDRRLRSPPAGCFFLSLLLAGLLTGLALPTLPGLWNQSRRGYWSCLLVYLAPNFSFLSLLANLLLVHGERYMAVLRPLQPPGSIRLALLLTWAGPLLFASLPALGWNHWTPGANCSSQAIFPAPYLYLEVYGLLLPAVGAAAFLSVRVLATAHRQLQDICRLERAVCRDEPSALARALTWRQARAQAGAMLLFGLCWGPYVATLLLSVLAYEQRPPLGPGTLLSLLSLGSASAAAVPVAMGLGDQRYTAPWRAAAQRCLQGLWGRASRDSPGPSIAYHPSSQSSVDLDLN
As to the kind of experiment: TGR5/CRE-Luciferiase Assay (HEK 293 hTGR5/CRE-Luc cells). In kind it is cell-based. The settings on record: h-TGR5 CRE-Luc EC50, Table 1; read-out: CRE-Luc (EC50). The method, boiled down: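 HEK293 cells stably carrying hTGR5 and a CRE-luciferase reporter were exposed to serially diluted compounds (diluted in DMEM with 5% DMSO) for 6 h. Cells were then lysed in luciferase buffer, luminescence was read, and EC50 values were derived from dose-response curves.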

Assay [2] addresses T2, h-TGR5 (Homo sapiens, UniProt Q8TDU6).
T2 construct: expressed in transfected cells
T2 sequence (Q8TDU6 1-330): T1 sequence (Q8TDU6 1-330)
In words: TGR5 cAMP Assay using Cisbio cAMP Dynamic2 htrf kit (hTGR5CRE-luc HEK 293 cells). In kind it is cell-based. To be noted: h-TGR5 cAMP EC50, Table 1; read-out: cAMP (EC50). A digest of the protocol: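 […], 4000 hTGR5CRE-luc HEK 293 cells per well, with 0.5 mM IBMX and d2-cAMP, were incubated 30 min at room temperature with compounds in 8-point half-log series, in quadruplicate.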

Usually EC50 stands for the concentration needed to bring the measured effect to its halfway point. Turning to `COc1cc(C(C)(C)c2cnc(SCc3ccc(Cl)c(-c4nnn[nH]4)c3)n2-c2ccc(F)cc2)ccc1Cl` [5-[2-chloro-5-({[5-{l-[4-chloro-3-(methyloxy)phenyl]-1-methylethyl}-1-(4-fluorophenyl)-1H-imidazol-2-yl]thio}methyl)phenyl]-1H-tetrazole], the EC50 in assay [1] was below 100 nM; in assay [2], 100 to 1000 nM.
Regarding `COc1ccc(C(C)(C)c2cnc(SCc3c(F)cc(C(=O)O)cc3Cl)n2-c2ccc(F)cc2)cc1Cl` [3-chloro-4-({[5-{1-[3-chloro-4-(methyloxy)phenyl]-1-methylethyl}-1-(4-fluorophenyl)-1H-imidazol-2-yl]thio}methyl)-5-fluorobenzoic acid], the EC50 in assay [1] and in assay [2] was below 100 nM each time.
In the case of `COc1cc(C(C)(C)c2cnc(SCc3ccc(S(=O)(=O)NC(=O)N4CCCC4)cc3Cl)n2-c2ccc(F)cc2)ccc1Cl` [N-{[3-chloro-4-({[5-{1-[4-chloro-3-(methyloxy)phenyl]-1-methylethyl}-1-(4-fluorophenyl)-1H-imidazol-2-yl]thio}methyl)phenyl]sulfonyl}pyrrolidine-1-carboxamide], the EC50 in assay [1] was 100 to 1000 nM; in assay [2], below 100 nM.
Take `COc1cc(C(C)(C)c2cnc(SCc3c(F)cc(OCCCNC(=N)N)cc3Cl)n2-c2ccc(F)cc2)ccc1F` [1-(3-{[3-chloro-5-fluoro-4-({[5-{1-[4-fluoro-3-(methyloxy)phenyl]-1-methylethyl}-1-(4-fluorophenyl)-1H-imidazol-2-yl]thio}methyl)phenyl]oxy}propyl)guanidine]: the EC50 in assay [1] and in assay [2] was below 100 nM throughout.
Take `COc1ccc(C(C)(C)c2cnc(CCc3c(F)cccc3Cl)n2-c2ccc(F)cc2)cc1OC` [5-{1-[3,4-bis(methyloxy)phenyl]-1-methylethyl}-2-[2-(2-chloro-6-fluorophenyl)ethyl]-1-(4-fluorophenyl)-1H-imidazole]: the half-maximal effective concentration (EC50) in assay [1] and in assay [2] was below 100 nM each time.
As for `CC(C)(c1ccc(F)c(F)c1)c1cnc(SCc2ccc(S(N)(=O)=O)cc2Cl)n1-c1ccc(F)cc1` [3-chloro-4-[({5-[1-(3,4-difluorophenyl)-1-methylethyl]-1-(4-fluorophenyl)-1H-imidazol-2-yl}thio)methyl]benzenesulfonamide], the EC50 in assay [1] and in assay [2] was 100 to 1000 nM each time.
For the compound `CC(C)(c1ccc(Cl)c(Cl)c1)c1cnc(SCc2c(F)cc(C(=O)O)cc2F)n1-c1ccc(F)c(C(F)F)c1` [4-[({5-[1-(3,4-dichlorophenyl)-1-methylethyl]-1-[3-(difluoromethyl)-4-fluorophenyl]-1H-imidazol-2-yl}thio)methyl]-3,5-difluorobenzoic acid], the EC50 in assay [1] was below 100 nM; in assay [2], 100 to 1000 nM.
The corresponding values for `COc1cc(C(C)(C)c2cnc(SCc3ccc(S(=O)(=O)NC(=O)NN4CCCC4)cc3Cl)n2-c2ccc(F)cn2)ccc1Cl` [3-chloro-4-({[5-{1-[4-chloro-3-(methyloxy)phenyl]-1-methylethyl}-1-(5-fluoropyridin-2-yl)-1H-imidazol-2-yl]thio}methyl)-N-[(pyrrolidin-1-ylamino)carbonyl]benzenesulfonamide] are 100 to 1000 nM and 100 to 1000 nM.
In the case of `COc1cc(-n2c(C(C)(C)c3ccc(S(N)(=O)=O)c(Cl)c3)cnc2SCc2ccc(S(N)(=O)=O)cc2Cl)ccc1F` [4-(1-{2-({[4-(aminosulfonyl)-2-chlorophenyl]methyl}thio)-1-[4-fluoro-3-(methyloxy)phenyl]-1H-imidazol-5-yl}-1-methylethyl)-2-chlorobenzenesulfonamide], the EC50 in assay [1] and in assay [2] was below 100 nM each time.
Consider `COc1cc(-n2c(C(C)(C)c3ccc(Cl)c(Cl)c3)cnc2SCC2CCN(C(=O)NC(C)C)CC2)ccc1F` [4-[({5-[1-(3,4-dichlorophenyl)-1-methylethyl]-1-[4-fluoro-3-(methyloxy)phenyl]-1H-imidazol-2-yl}thio)methyl]-N-(1-methylethyl)piperidine-1-carboxamide], for which the EC50 in assay [1] was below 100 nM; in assay [2] it was 100 to 1000 nM.
The matching figures for `CC(C)(c1ccc(Cl)c(Cl)c1)c1c(Cl)nc(SCc2ccc(-c3nnn[nH]3)c(Cl)c2)n1-c1ccc(F)cc1` [5-{2-chloro-4-[({4-chloro-5-[1-(3,4-dichlorophenyl)-1-methylethyl]-1-(4-fluorophenyl)-1H-imidazol-2-yl}thio)methyl]phenyl}-1H-tetrazole]: 100 to 1000 nM and 1000 to 10000 nM.
The corresponding values for `COc1cc(-n2c(C(C)(C)c3ccc(S(N)(=O)=O)c(Cl)c3)cnc2SCc2ccc(S(=O)(=O)NC(=O)NN3CCCCC3)cc2Cl)ccc1F` [4-{[(5-{1-[4-(aminosulfonyl)-3-chlorophenyl]-1-methylethyl}-1-[4-fluoro-3-(methyloxy)phenyl]-1H-imidazol-2-yl)thio]methyl}-3-chloro-N-[(piperidin-1-ylamino)carbonyl]benzenesulfonamide] are 100 to 1000 nM and 100 to 1000 nM.
As to `COc1cc(C(C)(C)c2cnc(SCc3ccc(S(=O)(=O)NC(=O)NN4CCCC4)cc3Cl)n2-c2ccc(F)cc2)ccc1F` [3-chloro-4-({[5-{1-[4-fluoro-3-(methyloxy)phenyl]-1-methylethyl}-1-(4-fluorophenyl)-1H-imidazol-2-yl]thio}methyl)-N-[(pyrrolidin-1-ylamino)carbonyl]benzenesulfonamide], the 50% effective concentration (EC50) in assay [1] and in assay [2] was 100 to 1000 nM in each case.
`CC(C)(c1ccc(Cl)c(Cl)c1)c1cnc(SCc2ccc(S(=O)(=O)NC(=O)NN3CCCC3)cc2Cl)n1-c1ccc(F)cn1` [3-chloro-4-[({5-[1-(3,4-dichlorophenyl)-1-methylethyl]-1-(5-fluoropyridin-2-yl)-1H-imidazol-2-yl}thio)methyl]-N-[(pyrrolidin-1-ylamino)carbonyl]benzenesulfonamide]: the EC50 in assay [1] and in assay [2] was 100 to 1000 nM each time.
With `COc1cc(-n2c(C(C)(C)c3ccc(Cl)c(Cl)c3)cnc2SCc2ccc(S(=O)(=O)NC(=O)NN3CCOCC3)cc2Cl)ccc1F` [3-chloro-4-[({5-[1-(3,4-dichlorophenyl)-1-methylethyl]-1-[4-fluoro-3-(methyloxy)phenyl]-1H-imidazol-2-yl}thio)methyl]-N-[(morpholin-4-ylamino)carbonyl]benzenesulfonamide], the EC50 in assay [1] and in assay [2] was 100 to 1000 nM in each case.
On to `CC(C)(c1ccc(Cl)c(Cl)c1)c1cnc(SCc2ccc(OCC(=O)O)c(S(N)(=O)=O)c2)n1-c1ccc(F)cc1` [({2-(aminosulfonyl)-4-[({5-[1-(3,4-dichlorophenyl)-1-methylethyl]-1-(4-fluorophenyl)-1H-imidazol-2-yl}thio)methyl]phenyl}oxy)acetic acid], for which the EC50 in assay [1] and in assay [2] was 100 to 1000 nM in each case.
`CC(C)(c1ccc(Cl)c(Cl)c1)c1cnc(SCc2ccc(C(=O)NCC(=O)O)cc2F)n1-c1ccc(F)cc1` [N-({4-[({5-[1-(3,4-dichlorophenyl)-1-methylethyl]-1-(4-fluorophenyl)-1H-imidazol-2-yl}thio)methyl]-3-fluorophenyl}carbonyl)glycine]: the EC50 in assay [1] and in assay [2] was 100 to 1000 nM each time.
Take `COc1cc(C(C)(C)c2cnc(SCc3ccc(C#CCNC(=N)N)c(C(=O)O)c3)n2-c2ccc(F)cc2)ccc1Cl` [2-(3-{[amino(imino)methyl]amino}prop-1-yn-1-yl)-5-({[5-{1-[4-chloro-3-(methyloxy)phenyl]-1-methylethyl}-1-(4-fluorophenyl)-1H-imidazol-2-yl]thio}methyl)benzoic acid]: the EC50 in assay [1] and in assay [2] was below 100 nM each time.
In the case of `COc1ccc(C2CCCCN2S(=O)(=O)c2ncc(C(C)(C)c3ccc(Cl)c(Cl)c3)n2-c2ccc(F)cc2)cn1` (centres unmarked) [5-[1-({5-[1-(3,4-dichlorophenyl)-1-methylethyl]-1-(4-fluorophenyl)-1H-imidazol-2-yl}sulfonyl)piperidin-2-yl]-2-(methyloxy)pyridine], the EC50 in assay [1] and in assay [2] was 100 to 1000 nM in each case.
As for `CCN(CC)CCS(=O)(=O)N1CCC(CSc2ncc(C(C)(C)c3ccc(Cl)c(Cl)c3)n2-c2ccc(F)cc2)CC1` [2-({4-[({5-[1-(3,4-dichlorophenyl)-1-methylethyl]-1-(4-fluorophenyl)-1H-imidazol-2-yl}thio)methyl]piperidin-1-yl}sulfonyl)-N,N-diethylethanamine], the EC50 in assay [1] and in assay [2] was 100 to 1000 nM throughout.
Take `COc1cc(C(C)(C)c2cnc(SCc3c(F)cc(C(=O)NC4CCN(c5nnn[nH]5)CC4)cc3Cl)n2-c2ccc(F)cc2)ccc1Cl` [3-chloro-4-({[5-{1-[4-chloro-3-(methyloxy)phenyl]-1-methylethyl}-1-(4-fluorophenyl)-1H-imidazol-2-yl]thio}methyl)-5-fluoro-N-[1-(1H-tetrazol-5-yl)piperidin-4-yl]benzamide]: the EC50 in assay [1] and in assay [2] was below 100 nM each time.
For `COc1cc(C(C)(C)c2cnc(SCc3c(F)cc(C(=O)NC(CCCNC(=N)N)C(=O)O)cc3Cl)n2-c2ccc(F)cc2)ccc1F` [N-2-{[3-chloro-5-fluoro-4-({[5-{1-[4-fluoro-3-(methyloxy)phenyl]-1-methylethyl}-1-(4-fluorophenyl)-1H-imidazol-2-yl]thio}methyl)phenyl]carbonyl}-D-arginine], the EC50 in assay [1] and in assay [2] was below 100 nM in each case.
